Assays:
[1] = test system: HBV viral load in AD38 cells; assay: Viral load production in AD38 cells, quantitative PCR of the core sequence in supernatant; assay type: cell-based; details: 10 μM compound, 6 days at 37° C., supernatant qPCR, relative to DMSO control; for activity at 10 µM: Hepatitis B virus, 144 h, read-out: AD38 Viral Load (%) (VL with cmpd/VL in DMSO control) at 10 μM
Method: (§1) Example 2: Assay Measuring Activity of Compounds on Viral Production in and on Viability of AD38 Cells
(§2) AD38 cells were then re-suspended with 10 mL of Treatment Medium and counted. Wells of a collagen coated 96-well NUNC microtiter plate were seeded at 50,000/well in 180 μL of Treatment Medium, and 20 μL of in treatment media with either 10% DMSO (Control) or a 10× solution of compound in 10% DMSO was added. Plates were incubated for 6 days at 37° C.
Viral load production was assayed by quantitative PCR of the core sequence. […] The PCR mixture was incubated at 45° C. for 5 minutes, then 95° C. for 10 min, followed by 40 cycles of 10 seconds at 95° C. and 20 seconds at 60° C. Viral load was quantitated against known standards by using ViiA™ 7 Software. Viral load in the supernatant from wells with treated cells were compared against viral load in supernatant from DMSO control wells (>3 per plate).

AD38 cells = assay: Viability of AD38 cells (Promega CellTiter-Glo); assay type: cell-based; details: 10 μM compound, 6 days, CellTiter-Glo luminescence normalized to DMSO control (100%)
Method: as §1, §2
At the end of compound treatment period cell viability was assessed using a Promega CellTiter-Glo protocol. All supernatant was removed the previously treated 96-well microtiter plate, and 50 μL Tetracycline-free treatment medium (DMEM/F12 (1:1), 1× Pen/step (cat #: 30-002-CL, Mediatech, Inc), with 2% FBS, Tet-system approved (cat #: 631106, Clontech), and 1% DMSO was added back to each well. Another 50 μL of CellTiter-Glo reagent solution (Promega, G7573) was then added at room temperature and the contents mixed for 2 minutes on an orbital shaker to induce cell lysis. This was followed by incubation at room temperature for 10 minutes to stabilize the luminescent signal. The luminescence was recorded for 0.2 seconds per well on a Tecan multimode plate reader (Infinite M1000 pro). The luminescent signal from each well was normalized against that of untreated (DMSO) control wells. All results were reported percent viability (with controls being 100%).

Row | Structure (SMILES) | activity at 10 µM [1] [%] | AD38 Viability Normalized Result (cmpd/DMSO %) at 10 μM (AD38 cells) [%] | AD38 Viral Load (%) (VL with cmpd/VL in DMSO control) at 10 μM [1]
1 | O=C(NCc1cnc(C(F)(F)F)s1)c1ccc2c(c1)NC(=O)c1ccccc1[S+]2[O-] (stereo not drawn) [compound 1772] | 7.1 | 109 | 
2 | O=C(NCc1cnc(-c2cc(O)ccn2)s1)c1ccc2c(c1)NC(=O)c1ccccc1S2(=O)=O [compound 1880, N-((2-(4-hydroxypyridin-2-yl)thiazol-5-yl)methyl)-11-oxo-10, 11-dihydrodibenzo [b, f] [1, 4] thiazepine-8-carboxamide 5,5-dioxide] | 6.7 | 104 | 
3 | O=C(NCc1cnc(-c2ccccc2)s1)c1ccc2c(c1)NC(=O)c1ccccc1O2 [compound 1562] | 0.9 | 97 | 
4 | CN(C)CCCOc1ccc(-c2ncc(CNC(=O)c3ccc4c(c3)NC(=O)c3ccccc3O4)s2)cc1 [compound 1698] | 2.7 | 91 | 
5 | CC(C)(C)OC(=O)N1CCN(c2ccc(-c3ncc(CNC(=O)c4ccc5c(c4)NC(=O)c4ccccc4S5(=O)=O)s3)cn2)CC1 [11019-A, tert-butyl 4-(5-(5-((5,5-dioxido-11-oxo-10, 11-dihydrodibenzo [b, f] [1, 4]thiazepine-8-carboxamido)methyl)thiazol-2-yl)pyridin-2-yl) piperazine-1-carboxylate] |  | 95 | 1.0
6 | CCN(CC)CCCOc1ccc(-c2ncc(CNC(=O)c3ccc4c(c3)NC(=O)c3ccccc3S4(=O)=O)s2)cc1 [compound 11073] | 2.2 | 94 | 
7 | Cc1c(C(=O)NCc2cnc(-c3ccc(O)cc3)s2)ccc2c1NC(=O)c1ccccc1S2 [compound 1755] | 0.4 | 93 | 
8 | O=C(NCc1cnc(-c2ccc(OCCCN3CCC(C(=O)O)C3)cc2)s1)c1ccc2c(c1)NC(=O)c1ccccc1S2(=O)=O (stereo not drawn) [compound 11107, 1-(3-(4-(5-((5,5-dioxido-11-oxo-10, 11-dihydrodibenzo [b, f] [1, 4]thiazepine-8-carboxamido)methyl)thiazol-2-yl)phenoxy)propyl) pyrrolidine-3-carboxylic acid] | 6.4 | 96 | 
9 | O=C1Nc2c(ccc(C(=O)NCc3cnc(-n4cccn4)s3)c2Cl)S(=O)(=O)c2ccccc21 [C51-02] | 0.2 | 98 | 
10 | O=C(NCc1cnc(-c2ccc(SCCCN3CCCCC3)cc2)s1)c1ccc2c(c1)NC(=O)c1ccccc1S2(=O)=O [compound 11065, 11-oxo-N-((2-(4-((3-(piperidin-1-yl)propyl)thio)phenyl)thiazol-5-yl)methyl)-10, 11-dihydrodibenzo [b, f] [1, 4] thiazepine-8-carboxamide 5,5-dioxide] | 1.2 | 66 | 
11 | CC(C)(C)OC(=O)N1CCN(C(=O)c2ccc(-c3ncc(CNC(=O)c4ccc5c(c4)NC(=O)c4ccccc4S5(=O)=O)s3)cc2)CC1 [11016-A, tert-butyl 4-(4-(5-((5,5-dioxido-11-oxo-10, 11-dihydrodibenzo [b, f] [1, 4]thiazepine-8-carboxamido)methyl)thiazol-2-yl)benzoyl) piperazine-1-carboxylate] |  | 103 | 6.7
12 | CCN(CC)CC(O)COc1ccc(-c2ncc(CNC(=O)c3ccc4c(c3)NC(=O)c3ccccc3S4(=O)=O)s2)cc1 (stereo not drawn) [compound 11086] | 4.7 | 88 | 
13 | Cc1ncc(CNC(=O)c2ccc3c(c2)NC(=O)c2ccc(Cl)cc2S3)s1 [compound 1544] | 2.6 | 88 | 
14 | CC(C)(O)Cc1ccccc1-c1ncc(CNC(=O)c2ccc3c(c2)NC(=O)c2ccccc2S3(=O)=O)s1 [compound 1840] | 3.2 | 107 | 
15 | COc1ccc(-c2ncc(CNC(=O)c3ccc4c(c3)NC(=O)c3ccccc3S4(=O)=O)s2)cc1 [compound 1596] | 3.8 | 25 | 
16 | O=C(NCc1cnc(-c2cnc(O)nc2)s1)c1ccc2c(c1)NC(=O)c1ccccc1S2(=O)=O [compound 1671, N-((2-(2-hydroxypyrimidin-5-yl)thiazol-5-yl)methyl)-11-oxo-10, 11-dihydrodibenzo [b, f] [1, 4] thiazepine-8-carboxamide 5,5-dioxide] | 18.2 | 100 | 
17 | COc1ncc(-c2ncc(CNC(=O)c3ccc4c(c3)NC(=O)c3ccccc3S4(=O)=O)s2)cn1 [1671-A, N-((2-(2-methoxypyrimidin-5-yl)thiazol-5-yl)methyl)-11-oxo-10, 11-dihydrodibenzo [b, f] [1, 4] thiazepine-8-carboxamide 5,5-dioxide] | 0.7 | 111 | 

Row | Structure (SMILES) | activity at 10 µM [1] [%] | AD38 Viability Normalized Result (cmpd/DMSO %) at 10 μM (AD38 cells) [%] | AD38 Viral Load (%) (VL with cmpd/VL in DMSO control) at 10 μM [1]
18 | Cc1nc(C)c(CNC(=O)c2ccc3c(c2)NC(=O)c2ccccc2S3(=O)=O)s1 [compound 1763] | 12.9 | 93 | 
19 | CC(C)(C)c1ncc(CNC(=O)c2ccc3c(c2)NC(=O)c2ccccc2S3(=O)=O)s1 [compound 1550] | 4 | 96 | 
20 | CC(CCN(C)C)Oc1ccc(-c2ncc(CNC(=O)c3ccc4c(c3)NC(=O)c3ccccc3S4(=O)=O)s2)cc1 (stereo not drawn) [compound 11080] | 1.4 | 84 | 
21 | O=C(NCc1cnc(-c2cccnc2)s1)c1ccc2c(c1)NC(=O)c1ccccc1S2(=O)=O [compound 1624] | 0.8 | 98 | 
22 | CN(C)CCOc1ncc(CNC(=O)c2ccc3c(c2)NC(=O)c2ccccc2O3)s1 [compound 1614, N-((2-(2-(dimethylamino)ethoxy)thiazol-5-yl)methyl)-11-oxo-10, 11-dihydrodibenzo [b, f] [1, 4] oxazepine-8-carboxamide] | 8.5 | 98 | 
23 | CN(C)c1ncc(-c2ncc(CNC(=O)c3ccc4c(c3)NC(=O)c3ccccc3O4)s2)cn1 [compound 1711] | 6.5 | 96 | 
24 | N#Cc1ccc(-c2ncc(CNC(=O)c3ccc4c(c3)NC(=O)c3ccccc3S4(=O)=O)s2)c(Cl)c1 [compound 1816] | 0.2 | 82 | 
25 | O=C(NCc1cnc(-c2ccc(OCCCN3CCC3)cc2)s1)c1ccc2c(c1)NC(=O)c1ccccc1S2(=O)=O [compound 11105] | 1.6 | 95 | 
26 | Cn1ccc(-c2ncc(CNC(=O)c3ccc4c(c3)NC(=O)c3ccccc3S4(=O)=O)s2)n1 [compound 11046] | 0.9 | 100 | 
27 | CN1CCC[C@H]1COc1ccc(-c2ncc(CNC(=O)c3ccc4c(c3)NC(=O)c3ccccc3S4(=O)=O)s2)cc1 [compound 11135, (S)—N-((2-(4-((1-methylpyrrolidin-2-yl)methoxy)phenyl)thiazol-5-yl)methyl)-11-oxo-10,11-dihydrodibenzo [b, f] [1, 4] thiazepine-8-carboxamide 5,5-dioxide] | 1.8 | 91 | 
28 | O=C(NCc1cnc(-c2ccc3[nH]cnc3c2)s1)c1ccc2c(c1)NC(=O)c1ccccc1O2 [compound 1695] | 22.9 | 102 | 
29 | O=C(NCc1cnc(-c2ccccc2)s1)c1ccc2c(=O)c3ccccc3c(=O)[nH]c2c1 [compound 1594] | 0.9 | 105 | 
30 | CN(C)c1ccc(-c2ncc(CNC(=O)c3ccc4c(c3)NC(=O)c3ccccc3O4)s2)cn1 [compound 1708] | 0.8 | 90 | 
31 | CCc1ncc(CNC(=O)c2ccc3c(c2)NC(=O)c2ccccc2S3(=O)=O)s1 [compound 1551] | 0.4 | 99 | 
32 | CC(C)N(C)CCCCc1ccc(-c2ncc(CNC(=O)c3ccc4c(c3)NC(=O)c3ccccc3S4(=O)=O)s2)cc1 [compound 11093] | 4.6 | 102 | 
33 | CC(C)N(C)CCCOc1ccc(-c2ncc(CNC(=O)c3ccc4c(c3)NC(=O)c3ccccc3S4(=O)=O)s2)cc1 [compound 11091] | 1.3 | 89 | 

Reference: patent publication US11814376B2, “Hepatitis b core protein modulators” (Assembly Biosciences, Inc., priority 2015, dated 2023)
